Measured values as given in PubChem BioAssay (NCI).
“And” between values parts separate entries of the source, which are not always exact repeats. Equal values may be shown once.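 Grown in 96-well plates, cells were treated for 48 hours with each compound at five concentrations. Insufficient inhibition: endpoint recorded as highest concentration tested. GI50 marks 50% less growth. TGI denotes the concentration required for complete inhibition of growth.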

system: RXF 393 renal; experiment: DTP human tumour cell line panel, 48 h

Question: For `N#CC1=C(N2CCCC2)NC(=O)CC1=O`, which TGI is on record?
Answer: The TGI was > 100 µM.

Question: Which TGI does the source give for `CC(C)(C)C1=CC(=CC=C2C=CN(CCCCCCCCCCCO)C=C2)C=C(C(C)(C)C)C1=O` here?
Answer: The TGI was 2.47 µM.

Question: For `O=C(c1ccc(Cl)cc1Cl)N(C(=O)N1CCCCC1)c1ccccc1`, which TGI is on record?
Answer: Its TGI is > 100 µM.

Question: For `CSc1ccc(C2C(Cl)C(=O)N2NC(=O)c2c(Cl)c(Cl)c(Cl)c(Cl)c2-c2nc3ccccc3[nH]2)cc1` (centres undefined), which TGI is on record?
Answer: Its TGI is 5.01 µM.

Question: `CC(C)CC(N)C(=O)O` (centres undefined) was tested. Which TGI did it give?
Answer: The TGI was > 100 µM.

Question: For `O=C1NC(Nc2cccc(Cl)c2)=N/C1=C\c1ccc(Cl)c(Cl)c1`, which TGI is on record?
Answer: The TGI was 10.4 µM.

Question: For `CCCCCCCCCCC(O)C1CCC(C2CCC(C(O)CCCCC(O)CCCCCC(O)CC3=CC(C)OC3=O)O2)O1` (centres undefined), which TGI is on record?
Answer: The TGI was > 25 µM.

system: MDA-MB-435; experiment: DTP human tumour cell line panel, 48 h

Question: Which TGI does the source give for `N#CC1=C(N2CCCC2)NC(=O)CC1=O` here?
Answer: Its TGI is > 100 µM.

Question: With `CC(C)(C)C1=CC(=CC=C2C=CN(CCCCCCCCCCCO)C=C2)C=C(C(C)(C)C)C1=O` as the compound, how does the TGI read?
Answer: The TGI was 3.4 µM.

Question: How did the TGI turn out when `O=C(c1ccc(Cl)cc1Cl)N(C(=O)N1CCCCC1)c1ccccc1` was run?
Answer: Its TGI is > 100 µM.

Question: `CSc1ccc(C2C(Cl)C(=O)N2NC(=O)c2c(Cl)c(Cl)c(Cl)c(Cl)c2-c2nc3ccccc3[nH]2)cc1` (centres undefined) was tested. Which TGI did it give?
Answer: The TGI was 37 µM.

Question: How did the TGI turn out when `CC(C)CC(N)C(=O)O` (centres undefined) was run?
Answer: Its TGI is > 100 µM.

Question: Which TGI does the source give for `O=C1NC(Nc2cccc(Cl)c2)=N/C1=C\c1ccc(Cl)c(Cl)c1` here?
Answer: The TGI was 17.6 µM.

Question: With `CCCCCCCCCCC(O)C1CCC(C2CCC(C(O)CCCCC(O)CCCCCC(O)CC3=CC(C)OC3=O)O2)O1` (centres undefined) as the compound, how does the GI50 read?
Answer: Its GI50 is 1.51 µM.

Question: And the TGI?
Answer: The TGI was 9.96 µM and > 25 µM.

system: A498 renal; experiment: DTP human tumour cell line panel, 48 h

Question: `N#CC1=C(N2CCCC2)NC(=O)CC1=O` was tested. Which TGI did it give?
Answer: Its TGI is > 100 µM.

Question: Which TGI does the source give for `CC(C)(C)C1=CC(=CC=C2C=CN(CCCCCCCCCCCO)C=C2)C=C(C(C)(C)C)C1=O` here?
Answer: The TGI was 7.3 µM.

Question: How did the TGI turn out when `O=C(c1ccc(Cl)cc1Cl)N(C(=O)N1CCCCC1)c1ccccc1` was run?
Answer: Its TGI is > 100 µM.

Question: Which TGI does the source give for `CSc1ccc(C2C(Cl)C(=O)N2NC(=O)c2c(Cl)c(Cl)c(Cl)c(Cl)c2-c2nc3ccccc3[nH]2)cc1` (centres undefined) here?
Answer: Its TGI is 72.1 µM.

Question: How did the TGI turn out when `CC(C)CC(N)C(=O)O` (centres undefined) was run?
Answer: The TGI was > 100 µM.

Question: Which TGI does the source give for `O=C1NC(Nc2cccc(Cl)c2)=N/C1=C\c1ccc(Cl)c(Cl)c1` here?
Answer: The TGI was 16.3 µM.

Question: Which results are given for `CCCCCCCCCCC(O)C1CCC(C2CCC(C(O)CCCCC(O)CCCCCC(O)CC3=CC(C)OC3=O)O2)O1` (centres undefined)?
Answer: GI50: 5.27 µM; TGI: > 25 µM

system: LOX IMVI melanoma; experiment: DTP human tumour cell line panel, 48 h

Question: How did the TGI turn out when `N#CC1=C(N2CCCC2)NC(=O)CC1=O` was run?
Answer: The TGI was > 100 µM.

Question: `CC(C)(C)C1=CC(=CC=C2C=CN(CCCCCCCCCCCO)C=C2)C=C(C(C)(C)C)C1=O` was tested. Which TGI did it give?
Answer: The TGI was 1.69 µM.

Question: How did the TGI turn out when `O=C(c1ccc(Cl)cc1Cl)N(C(=O)N1CCCCC1)c1ccccc1` was run?
Answer: Its TGI is > 100 µM.

Question: With `CSc1ccc(C2C(Cl)C(=O)N2NC(=O)c2c(Cl)c(Cl)c(Cl)c(Cl)c2-c2nc3ccccc3[nH]2)cc1` (centres undefined) as the compound, how does the TGI read?
Answer: The TGI was 15.6 µM.

Question: `CC(C)CC(N)C(=O)O` (centres undefined) was tested. Which TGI did it give?
Answer: Its TGI is > 100 µM.

Question: Which TGI does the source give for `O=C1NC(Nc2cccc(Cl)c2)=N/C1=C\c1ccc(Cl)c(Cl)c1` here?
Answer: Its TGI is 4.26 µM.

Question: With `CCCCCCCCCCC(O)C1CCC(C2CCC(C(O)CCCCC(O)CCCCCC(O)CC3=CC(C)OC3=O)O2)O1` (centres undefined) as the compound, how does the GI50 read?
Answer: Its GI50 is 0.218 µM.

Question: What about the TGI of the same compound?
Answer: Its TGI is 2.6 µM and > 25 µM.

system: SW-620 colon; experiment: DTP human tumour cell line panel, 48 h

Question: With `N#CC1=C(N2CCCC2)NC(=O)CC1=O` as the compound, how does the TGI read?
Answer: Its TGI is > 100 µM.

Question: How did the TGI turn out when `CC(C)(C)C1=CC(=CC=C2C=CN(CCCCCCCCCCCO)C=C2)C=C(C(C)(C)C)C1=O` was run?
Answer: Its TGI is 3.08 µM.

Question: `O=C(c1ccc(Cl)cc1Cl)N(C(=O)N1CCCCC1)c1ccccc1` was tested. Which TGI did it give?
Answer: The TGI was > 100 µM.

Question: `CSc1ccc(C2C(Cl)C(=O)N2NC(=O)c2c(Cl)c(Cl)c(Cl)c(Cl)c2-c2nc3ccccc3[nH]2)cc1` (centres undefined) was tested. Which TGI did it give?
Answer: Its TGI is > 100 µM.

Question: For `CC(C)CC(N)C(=O)O` (centres undefined), which TGI is on record?
Answer: The TGI was > 100 µM.

Question: For `O=C1NC(Nc2cccc(Cl)c2)=N/C1=C\c1ccc(Cl)c(Cl)c1`, which TGI is on record?
Answer: Its TGI is 19.6 µM.

Question: What does the source list for `CCCCCCCCCCC(O)C1CCC(C2CCC(C(O)CCCCC(O)CCCCCC(O)CC3=CC(C)OC3=O)O2)O1` (centres undefined)?
Answer: GI50: 3.93 µM; TGI: > 25 µM

system: SF-539 CNS; experiment: DTP human tumour cell line panel, 48 h

Question: `N#CC1=C(N2CCCC2)NC(=O)CC1=O` was tested. Which TGI did it give?
Answer: Its TGI is > 100 µM.

Question: How did the TGI turn out when `CC(C)(C)C1=CC(=CC=C2C=CN(CCCCCCCCCCCO)C=C2)C=C(C(C)(C)C)C1=O` was run?
Answer: The TGI was 3.12 µM.

Question: With `O=C(c1ccc(Cl)cc1Cl)N(C(=O)N1CCCCC1)c1ccccc1` as the compound, how does the TGI read?
Answer: Its TGI is > 100 µM.

Question: For `CSc1ccc(C2C(Cl)C(=O)N2NC(=O)c2c(Cl)c(Cl)c(Cl)c(Cl)c2-c2nc3ccccc3[nH]2)cc1` (centres undefined), which TGI is on record?
Answer: Its TGI is 53.4 µM.

Question: Which TGI does the source give for `CC(C)CC(N)C(=O)O` (centres undefined) here?
Answer: The TGI was > 100 µM.

Question: Which TGI does the source give for `O=C1NC(Nc2cccc(Cl)c2)=N/C1=C\c1ccc(Cl)c(Cl)c1` here?
Answer: Its TGI is 22.2 µM.

Question: For `CCCCCCCCCCC(O)C1CCC(C2CCC(C(O)CCCCC(O)CCCCCC(O)CC3=CC(C)OC3=O)O2)O1` (centres undefined), which TGI is on record?
Answer: The TGI was > 25 µM.

system: UO-31 renal; experiment: DTP human tumour cell line panel, 48 h

Question: How did the TGI turn out when `N#CC1=C(N2CCCC2)NC(=O)CC1=O` was run?
Answer: Its TGI is > 100 µM.

Question: `CC(C)(C)C1=CC(=CC=C2C=CN(CCCCCCCCCCCO)C=C2)C=C(C(C)(C)C)C1=O` was tested. Which TGI did it give?
Answer: The TGI was 3.67 µM.

Question: Which TGI does the source give for `O=C(c1ccc(Cl)cc1Cl)N(C(=O)N1CCCCC1)c1ccccc1` here?
Answer: The TGI was > 100 µM.

Question: How did the TGI turn out when `CSc1ccc(C2C(Cl)C(=O)N2NC(=O)c2c(Cl)c(Cl)c(Cl)c(Cl)c2-c2nc3ccccc3[nH]2)cc1` (centres undefined) was run?
Answer: The TGI was > 100 µM.

Question: `CC(C)CC(N)C(=O)O` (centres undefined) was tested. Which TGI did it give?
Answer: The TGI was > 100 µM.

Question: For `O=C1NC(Nc2cccc(Cl)c2)=N/C1=C\c1ccc(Cl)c(Cl)c1`, which TGI is on record?
Answer: Its TGI is 20.6 µM.

Question: Which results are given for `CCCCCCCCCCC(O)C1CCC(C2CCC(C(O)CCCCC(O)CCCCCC(O)CC3=CC(C)OC3=O)O2)O1` (centres undefined)?
Answer: GI50: 1.74 µM; TGI: 9.95 µM and > 25 µM
